Source: patent publication US5582981A, “Method for identifying an oligonucleotide aptamer specific for a target” (priority 1994, dated 1996)

System: thrombin
Experiment: clotting time for thrombin-catalyzed conversion of fibrinogen to fibrin
Format: biochemical
Details: thrombin 10 nM, 7 mer at 20 μM; thrombin alone 24 sec
Protocol: Clotting time for the thrombin-catalyzed conversion of fibrinogen (2.0 mg/ml in selection buffer) to fibrin at 37° C. was measured using a precision coagulation timer apparatus (Becton-Dickinson, Cat. nos. 64015, 64019, 64020). Thrombin (10 nM) incubated with fibrinogen alone clotted in 40 sec, thrombin incubated with fibrinogen and P1 nuclease (Boehringer-Mannheim, Indianapolis, Ind.) clotted in 39 sec, thrombin incubated with fibrinogen and aptamer clone #5 (200 nM) clotted in 115 sec, and thrombin incubated with fibrinogen, clone #5 (200 nM) and P1 nuclease clotted in 40 sec. All incubations were carried out at 37° C. using reagents prewarmed to 37° C. Aptamer DNA or, when present, P1 nuclease, was added to the fibrinogen solution prior to addition of thrombin.
Inhibition of thrombin activity was studied using a consensus-related sequence 7 mer, 5' GGTTGGG 3' (SEQ ID NO: 15), and a control 7 mer with the same base composition but different sequence (5' GGGGGTT 3') (SEQ ID NO: 16). Clotting times were measured using the timer apparatus as above. The thrombin clotting time in this experiment was 24 sec using thrombin alone (10 nM), 26 sec with thrombin and the control sequence at 20 μM and 38 sec with thrombin plus the consensus sequence at 20 μM, indicating specificity for thrombin inhibition at the level of the 7 mer.

Substance | thrombin clotting time
5' GGGGGTT 3' (chemistry not given here) [SEQ ID NO: 16] | 26 s
5' GGTTGGG 3' (chemistry not given here) [SEQ ID NO: 15] | 38 s
